# Measurements from patent publication US4233309A, “Novel 1-substituted-3-acylpyrrole derivatives, platelet aggregation inhibitors containing them, as active ingredients, and processes for production of said derivatives” (Teijin Limited, priority 1977, dated 1980).
# Where two headings read alike, the source gives them in different places.
# Columns and labels:
# [1] = test system: platelet aggregation (guinea pig PRP, extra vivo); test: Inhibitory effect of compounds on platelet aggregation in extra vivo (Table 4); design: species or system Hartley-strain guinea pigs; conditions: Cavia porcellus, 100 mg/kg PO, 1 h after administration
# Method: The effect of the compounds shown in Table 4 on platelet aggregation was assessed using guinea pig in extra vivo.
# Each of the test compounds was dissolved in propylene glycol so that its concentration became 100 mg/ml (dosage corresponded to 100 mg/kg) and 30 mg/ml (dosage corresponded to 30 mg/kg). The drug solution was administered either orally or subcutaneously to Hartley-strain guinea pigs (3 per group) having a body weight of 300 to 350 g. As a control, propylene glycol was administered. One hour after the administration, citrated blood was taken out by cardiac puncture, and centrifuged to obtain PRP (see Example 67).
# In the case of oral administration, the animals had been fasted overnight.
# Into a quvett set in a holder of an aggregometer and prewarmed at 37° C. with stirring, was put 450 μl of the above PRP, and then 50 μl of an aggregating agent was added. The aggregation curve was recorded for an additional 3 minutes, and an increase in light transmittance through PRP after 3 minutes (TB) was recorded (see Example 67). As a control, an increase of transmittance of PRP taken from a guinea pig group administered with propylene glycol alone (TA) was recorded in the same way above. The percent inhibitions were calculated in accordance with the following equation. [formula]
# As the aggregating agent, sodium arachidonate (a final concentraton of 0.03 mM) and a collagen suspension (a final concentration of 5 μg/ml) were used.
# The percent inhibitions in the above table are averages of three guinea pigs. For details of the above extra vivo test about inhibition of platelet aggregation, the literature references described in Example 67 may be referred to.
# [2] = test system: platelet aggregation (guinea pig PRP, extra vivo); test: as above; design: species or system Hartley-strain guinea pigs; conditions: Cavia porcellus, 10 mg/kg SC, 1 h after administration
# [3] = test system: biosynthesis of prostaglandins (microsomes of the seminal vesicle of bovine); test: Inhibitory effect on prostaglandin biosynthesis in vitro (Table 3); format: biochemical; conditions: 4 μg/ml sodium arachidonate, bioassay on rat fundus stomach strips
# Method: Sprangue-Dawley rats (male, 180-200 g) were fasted overnight, and killed by blow on the head. The stomach was isolated, and fundus stomach strips were prepared. The smooth muscle strips were perfused with Krebs-Hensleit solution (gassed with 95% O2 +5% CO2 gas) of 37° C. at a rate of […]. The Krebs-Hensleit solution contained 0.1 μg/ml of atropine, 0.1 μg/ml of phenoxybenzamine, 3 μg/ml of propranolol, 0.1 μg/ml of tripelennamine, and 0.2 μg/ml of methylsergide to prevent the effect of smooth muscle contracting substances, and 1 μg/ml of indomethacine to inhibit the biosynthesis of prostaglandin by the smooth muscles. Then, 150 μl of a reaction solution containing biologically synthesized prostaglandin was added to the perfusion solution, and the amount of the biologically synthesized prostaglandin was measured from the contraction of the smooth muscles. The contraction of the smooth muscles was recorded on a recorder using an isotonic transducer.
# The reaction solution containing biologically synthesized prostaglandin was prepared in the following manner.
# To 0.4 mg/ml of microsomes of the seminal vesicle of bovine were added 5 mM of L-tryptophan, 0.025 μM of bovine hemoglobin and 3 mμ of glutathione as cofactors. The mixture was incubated together with each of the test compounds shown in Table 4 at 37° C. for 2 minutes, and immediately then, 4 μg/ml of sodium arachidonate was added. The mixture was further incubated at 37° C. for 10 minutes, and immediately then, the prostaglandin activity of the reaction solution was measured by bioassay.
# The microsomes of the seminal vesicle of bovine had been prepared by suspending microsomes of the seminal vesicle of bovine (a product of Miles Laboratories, Inc.) in a 50 mM Tris.HCl buffer (pH 7.4) using a glass homogenizer, and stored in ice water prior to use.
# ID50 denotes the concentration of each test compound required to inhibit the biosynthesis of prostaglandins by 50%.
# [4] = collagen 5 μg/ml, read-out: Percent inhibition of platelet aggregation, collagen
# [5] = sodium arachidonate 0.03 mM, read-out: Percent inhibition of platelet aggregation, sodium arachidonate
smiles,measurement,setting,value
"Cc1cc(C(=O)c2ccccc2)c(C)n1CC(C)O (centres unmarked) [Compound 102, 2-(3-benzoyl-2,5-dimethylpyrrol-1-yl)-1-methylethanol]",inhibition at 100 mg/kg,[1]; [4],29 to 55%
same,inhibition at 100 mg/kg,[1]; [5],54 to 89%
same,inhibition at 10 mg/kg,[2]; [4],79%
same,inhibition at 10 mg/kg,[2]; [5],99%
same,ID50 (concentration required to inhibit the biosynthesis of prostaglandins by 50%),[3],11.9 mg/L
